{"source": "paper PMC12010937", "about": "“Evaluation of FXR Activity in Pollutants Identified in Sewage Sludge and Subsequent in Vitro and in Vivo Characterization of Metabolic Effects of Triphenyl Phosphate” (Environmental Health Perspectives, 2025)", "key": {"[1]": {"tested_on": "FXR target genes (SHP, NTCP, CYP7A1) in HepG2 cells", "experiment": "qPCR of FXR target genes in HepG2 cells", "format": "cell-based, human"}, "[2]": {"target": "T1, FXR (pCDNA3.1-hFXR, FXRE-luc) (Homo sapiens, UniProt Q96RI1)", "T1 construct": "host or cells: HEK 293T", "T1 sequence (Q96RI1 1-486)": "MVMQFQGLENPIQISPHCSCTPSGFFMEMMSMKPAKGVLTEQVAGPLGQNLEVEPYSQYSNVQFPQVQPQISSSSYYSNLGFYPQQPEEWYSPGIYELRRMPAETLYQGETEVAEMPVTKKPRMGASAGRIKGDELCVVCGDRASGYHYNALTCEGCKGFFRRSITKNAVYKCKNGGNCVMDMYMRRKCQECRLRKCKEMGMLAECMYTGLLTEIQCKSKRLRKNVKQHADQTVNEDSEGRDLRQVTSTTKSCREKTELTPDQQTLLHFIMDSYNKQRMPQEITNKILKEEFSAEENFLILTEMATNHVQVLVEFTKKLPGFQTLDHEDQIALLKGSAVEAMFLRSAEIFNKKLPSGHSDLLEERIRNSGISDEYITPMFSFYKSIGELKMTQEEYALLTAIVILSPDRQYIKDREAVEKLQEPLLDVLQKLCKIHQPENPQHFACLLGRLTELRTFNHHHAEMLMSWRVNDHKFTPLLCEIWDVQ", "experiment": "cell-based", "format": "cell-based"}, "[3]": {"target": "T2, human FXR-LBD (GST-FXR-LBD) (Homo sapiens, UniProt Q96RI1)", "T2 construct": "the human FXR-LBD (residues 234–472) was expressed as a GST fusion protein GST-FXR-LBD; made in house; host or cells: E. coli BL21(DE3)", "T2 sequence (Q96RI1 234-472 isoform Q96RI1-2)": "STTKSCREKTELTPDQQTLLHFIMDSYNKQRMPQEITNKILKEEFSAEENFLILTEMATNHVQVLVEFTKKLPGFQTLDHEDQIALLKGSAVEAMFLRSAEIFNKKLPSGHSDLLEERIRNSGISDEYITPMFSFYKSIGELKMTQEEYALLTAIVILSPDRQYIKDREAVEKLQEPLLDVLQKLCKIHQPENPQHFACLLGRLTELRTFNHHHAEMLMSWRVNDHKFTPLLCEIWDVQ", "experiment": "HTRF coactivator recruitment assay, antagonist mode (in the presence of 50 μM CDCA)", "format": "biochemical"}, "[4]": {"conditions": "10 μM TPHP + 50 μM CDCA, replicates"}, "[5]": {"conditions": "read-out: Relative antagonist activity (%)"}}, "note": "Values joined by “and” are separate entries in the source; they are usually repeats but may differ in a detail not shown here. Equal values may be shown once. “Also recorded” adds a separate entry of the source.", "data": [{"smiles": "O=P(Oc1ccccc1)(Oc1ccccc1)Oc1ccccc1", "note": "[TPHP, triphenyl phosphate]", "values": [{"measurement": "Effect on CDCA-induced expression changes of FXR target genes (SHP, NTCP, CYP7A1), in words", "setting": "[1]", "value": "attenuated the CDCA-induced expression changes"}, {"measurement": "Relative mRNA expression level of CYP7A1", "setting": "[1]; [4]", "value": "1.85 fold changes and 1.10 fold changes and 1.48 fold changes"}, {"measurement": "Relative mRNA expression level of NTCP", "setting": "[1]; [4]", "value": "1.11 fold changes and 0.92 fold changes and 0.94 fold changes"}, {"measurement": "Relative mRNA expression level of SHP", "setting": "[1]; [4]", "value": "1.02 fold changes and 1.19 fold changes and 1.08 fold changes"}, {"measurement": "IC50", "setting": "[2]", "value": 27.4, "unit": "µM"}, {"measurement": "Relative luciferase activity (%)", "setting": "[2]; 0.01 μM, dose-response, replicates", "value": "85.51% and 90.10% and 106.89%"}, {"measurement": "Relative luciferase activity (%)", "setting": "[2]; 0.1 μM, dose-response, replicates", "value": "104.74% and 89.81%"}, {"measurement": "Relative luciferase activity (%)", "setting": "[2]; 0.5 μM, dose-response, replicates", "value": "73.91% and 74.66%"}, {"measurement": "Relative luciferase activity (%)", "setting": "[2]; 1 μM, dose-response, replicates", "value": "77.48% and 70.96%"}, {"measurement": "Relative luciferase activity (%)", "setting": "[2]; 5 μM, dose-response, replicates", "value": "51.88% and 54.98% and 76.88%"}, {"measurement": "Luciferase activity compared with DMSO control (in words)", "setting": "[2]; 10 μM and 25 μM, in the presence of 50 μM CDCA, HEK 293T", "value": "significantly less luciferase activity; also recorded: lowest luciferase activity"}, {"measurement": "Relative luciferase activity (%)", "setting": "[2]; 10 μM compound in the presence of 50 μM CDCA, DMSO 0%, 50 μM CDCA 100%, HEK 293T, replicates", "value": "2.5% and 7.4% and 17.9%"}, {"measurement": "Relative luciferase activity (%)", "setting": "[2]; 10 μM, dose-response, replicates", "value": "46.34% and 52.21%"}, {"measurement": "Relative luciferase activity (%)", "setting": "[2]; 25 μM compound in the presence of 50 μM CDCA, DMSO 0%, 50 μM CDCA 100%, HEK 293T, replicates", "value": "-6.4% and -7.6% and -3.9%"}, {"measurement": "Relative luciferase activity (%)", "setting": "[2]; 25 μM, dose-response, replicates", "value": "2.58% and 9.91% and 5.01%"}, {"measurement": "Relative luciferase activity (%)", "setting": "[2]; 50 μM, dose-response, replicates", "value": "-21.44% and -22.90% and -18.55%"}, {"measurement": "Rate of FXR inhibition at the maximum exposure concentration", "setting": "[2]; HEK 293T DLR assay, maximum exposure concentration", "value": 120.96, "unit": "%"}, {"measurement": "activity at 0.1 µM", "setting": "[2]; HEK-293T, read-out: Relative luciferase activity (%), 0.1 μM, dose-response, replicates", "value": 87.5, "unit": "%"}, {"measurement": "activity at 0.5 µM", "setting": "[2]; HEK-293T, read-out: Relative luciferase activity (%), 0.5 μM, dose-response, replicates", "value": 82.3, "unit": "%"}, {"measurement": "activity at 1 µM", "setting": "[2]; HEK-293T, read-out: Relative luciferase activity (%), 1 μM, dose-response, replicates", "value": 63.9, "unit": "%"}, {"measurement": "activity at 10 µM", "setting": "[2]; HEK-293T, read-out: Relative luciferase activity (%), 10 μM, dose-response, replicates", "value": 39.7, "unit": "%"}, {"measurement": "activity at 1.95 µM", "setting": "[3]; 1.95 μM compound + 50 μM CDCA, replicates, read-out: Relative antagonist activity (%)", "value": 97.2, "unit": "%"}, {"measurement": "activity at 3.9 µM", "setting": "[3]; 3.90 μM compound + 50 μM CDCA, replicates, read-out: Relative antagonist activity (%)", "value": 97.3, "unit": "%"}, {"measurement": "activity at 31.25 µM", "setting": "[3]; 31.25 μM compound + 50 μM CDCA, replicates, read-out: Relative antagonist activity (%)", "value": 87.3, "unit": "%"}, {"measurement": "Relative activity, antagonist mode", "setting": "[3]; 50 μM compound in the presence of 50 μM CDCA, standardized against positive control DY268 (50 μM = 100%)", "value": 42.69, "unit": "%"}, {"measurement": "activity at 62.5 µM", "setting": "[3]; 62.50 μM compound + 50 μM CDCA, replicates, read-out: Relative antagonist activity (%)", "value": 76.5, "unit": "%"}, {"measurement": "activity at 250 µM", "setting": "[3]; 250.00 μM compound + 50 μM CDCA, standardized to DMSO and 50 μM CDCA, replicates, read-out: Relative antagonist activity (%)", "value": 58.1, "unit": "%"}, {"measurement": "IC50", "setting": "[3]; read-out: IC50, inhibition of CDCA-induced coactivator recruitment to FXR", "value": 70.6, "unit": "µM"}, {"measurement": "activity at 0.98 µM", "setting": "[3]; [5]", "value": 99.2, "unit": "%"}, {"measurement": "activity at 7.8 µM", "setting": "[3]; [5]", "value": 95.9, "unit": "%"}, {"measurement": "activity at 125 µM", "setting": "[3]; [5]", "value": 64.3, "unit": "%"}, {"measurement": "activity at […]", "setting": "[3]; [5]", "value": 90.6, "unit": "%"}]}]}
